US5288723A, “A composition and a method of using veratridine and epinephrine as a local anesthetic” (priority 1991, dated 1994)
“Also recorded” adds a separate entry of the source. Like-named read-outs stand apart in the source and are kept apart here.

How the values were obtained:
[1] = test system: vagus nerve with intact sheath (C-fibers); assay: Extracellular recordings from sheathed nerves; set-up: species or system rabbit
Method: (§1) The nerves were cleaned and desheathed by microdissection before mounting in an airtight chamber (FIG. 2B) [Gissen et al., Anesthesiology 53:467-474 (1980)]. Petroleum jelly (White Petrolatum, Denison Laboratories) seals separated a central, 11-mm length of the nerve from the lateral pools, used for stimulating and recording with electrodes made of platinum wire. The central section of the chamber (volume 0.25 ml) was perfused with HL solution at 0.5 ml.min.^-1. The lateral pools containing the moistened ends of the nerves adsorbed to the electrodes were filled with paraffin oil. The APc s were propagated over 21 mm, from the stimulating to the recording electrodes, with the proximal recording electrodc located 4.5 mm from the edge of the central, drug exposure chamber. Thus, measured APc s were conducted in nerve exposed to drug for half of the conduction pathway, and had been conducting through drug-free medium over a distance containing at least two or three nodes of Ranvier (in the fastest-conducting fibers), before reaching the recording electrodes.
(§2) The signal from the nerve was amplified 50 times (model AK 475 operational amplifier, Metametrics, Carlisle, Mass.) and passed to the oscilloscope preamplifiers (model 5A 22N, Tektronix). The preparation was not considered acceptable unless the APc signals from the nerve exceeded 1.5 mV for A-fibers, 0.5 mV for B-fibers, and 0.3 mV for C-fibers.
(§3) Each nerve was exposed to only one VTD concentration, and each concentration was tested in four or five separate nerves, except in tie sheathed nerves, for which only two nerves were used. The temperature was 20°-22° C.
We tested the ability of VTD to penetrate the tissues ensheathing the vagus nerve. Nerves with intact sheaths were arranged in the same extracellular recording chamber as had been used for the desheathed nerve studies just described. Because of the electrical isolating qualities of the sheath, stimulus requirements are greater and the recorded APC s are smaller, but have the same latency from stimulation as in the desheathed nerves. […] However, the onset of the effect was much slower and the VTD dose requirement much higher: 2 μM VTD took approximately 30 min. to affect the C-fibers detectably, and 10 μM took approximately 15 min. This is expected in a lipophilic base for which more than 90%, on average, of the drug molecules are ionized [Kupchan and By, "The Veratrum Group," in Alkaloids, Vol. 10, Manske, R.H.F. (ed.), New York, Academic Press (1968), pp. 193-285].

rabbit vagus nerve = assay: Extracellular recording of compound action potentials (APc), vagus nerve as a whole; set-up: species or system New Zealand white rabbit
Method: (§4) Adult male New Zealand white rabbits (3±0.5 kg) were pretreated intramuscularly with a mixture of ketamine (200 mg), xylazine (20 mg) and atropine (0.4 mg) for sedation. Ten minutes after this treatment, the animals were anesthetized with diethyl ether. After cessation of respiration, a longitudinal skin incision was made, and the cervical portion of both vagus nerves was dissected. The vagus nerves were temporarily stored at room temperature (22° C.) in a beaker containing modified HEPES Liley (HL) solution stirred constantly by aeration with a mixture of 95% oxygen and 5% carbon dioxide.
(§5) The modified HL solution used for bathing the nerve and subsequent drug perfusion consisted of (in mM): NaCl, 118.0; KCl, 5.0; CaCl2 2H2 0, 2.0; MgCl2 6H2 0, 1.0; α-D(+)-glucose, 11.0; NaHC03, 25.0; and N-2-hydroxy-ethylpiperazine-N-2-ethanesulfonic acid (HEPES) buffer, 5.0 mM. The pH was adjusted to 7.4±0.05 by addition of 1 N NaOH. The perfusion solution was bubbled with a gas mixture of 95% oxygen and 5% carbon dioxide at a vigorous rate just before flowing onto the nerve. The pH was stabilized by the HEPES buffer and maintained at 7.4.
(§6) VTD free base (no. V-5754, lot 58F-7828, Sigma, St. Louis, Mo.) was stored in a desiccator below 0° C. and was used to prepare a 2 mM stock solution in dimethyl sulfoxide [DMSO], Fisher Scientific, lot 861316), which also was stored at below 0° C. VTD, a steroidal alkaloid (FIG. 2A) that is produced by certain lilies, has a solubility limited to approximately 10^-3 M in aqueous slat solutions [Kupchan and By, "The Veratrum Group," in Alkaloids, Vol. 10, Manske, R.H.F. (ed.), New York, Academic Press (1968), pp. 193-285]. The stock VTD solution was diluted to final concentrations of 0.2-10 μM by the addition of HL. The maximum equivalent content of DMSO is 0.5%, and in three control experiments we detected no change in electrophysiologic behavior with 1% DMSO.
as §1, with “The APc s were propagated over 21 mm, from the stimulating to the recording electrodes, with the proximal recording electrodc located 4.5 mm from the edge of the central, drug exposure chamber.” left out, “electrodes. […]” for “electrodes.”

[2] = test system: A-fibers of rabbit vagus nerve; assay: Extracellular recording of compound action potentials (APc), desheathed vagus nerve, A-fibers; set-up: species or system New Zealand white rabbit; settings: for inhibition at 0.5 µM / activity at 0.5 µM: Oryctolagus cuniculus, 0.5 μM VTD; for inhibition at 0.5 µM: 1.25 h, mean ± SEM; for activity at 0.5 µM: read-out: Amplitude of single APc elevation relative to amplitude at beginning of VTD exposure
Method: as §4, §5, §6, §1, §2, §3
The standard protocol used for testing the action of VTD was to record the APc elevations in control HL solution for 30-60 min. before adding VTD; for 60-75 min. during VTD application; and for 60-75 min. after replacement with VTD-free HL. […]

rat sciatic nerve [3] = assay: Motor block of rat sciatic nerve in vivo (toe curling and/or foot dragging); set-up: species or system Male Sprague-Dawley rats; settings: for duration, MOTOR / onset, MOTOR: mean ± SEM
Method: (§7) Male Sprague-Dawley rats (200-250 g) were divided into 4 groups of 10 each. 0.1 ml of VTD alone at 0.2, 0.5 or 0.7 mM or vehicle (saline) was injected at the depression between the femoral head and the hip. The same animals were injected with VTD with epinephrine (EPI, 1:200,000) one week later, using the previously uninjected leg. Motor and sensory functions were rated by the respective monitoring of toe curling and/or foot dragging, and by testing the nocifensive withdrawal reflex to pinch of the foot pad of the injected hindlimb. Saline alone affected neither function.

rat sciatic nerve [4] = assay: Sensory block of rat sciatic nerve in vivo (nocifensive withdrawal reflex to pinch of the foot pad); set-up: species or system Male Sprague-Dawley rats; settings: for fraction block, SENSORY / duration, SENSORY / onset, SENSORY: 0.1 ml; for duration, SENSORY / onset, SENSORY: mean ± SEM
Method: as §7

With COc1ccc(C(=O)OC2CCC3(C)C4CCC5C6(O)CC(O)C7(O)C(CN8CC(C)CCC8C7(C)O)C6(O)CC53OC24O)cc1OC (stereo not drawn) [VTD, veratridine] the “Time to affect the C-fibers detectably, sheathed nerve” value ([1]; 2 μM VTD) was “approximately 30 min”, the “Time to affect the C-fibers detectably, sheathed nerve” value ([1]; 10 μM VTD) was “approximately 15 min” and the “Use-dependent reduction as % of that achieved at steady state on a desheathed nerve by 0.2 μm VTD” value ([1]; 10 Hz, 60-min. exposure to 10 μm VTD) was “approximately 30%”. For the same molecule, the “C-fiber elevation / APc inhibition in sheathed nerves” value ([1]; intact sheath) was “inhibited selectively; also recorded: progressively inhibited in a use-dependent fashion”, the “Reduction of rate of penetration into the nerve by the sheath” value ([1]; sheathed vs desheathed nerve) was “at least 50 fold” and the “Rate of VTD action with intact nerve sheath” value ([1]; vs desheathed nerves) was “far less than in desheathed nerves”. For the same molecule, the “Duration of steady-state effect in drug-free solution” value ([1]; wash-out period after 75 min. exposure, both nerves tested, up to) was “up to 3 h”, the “Fiber preference of impulse inhibition” value (rabbit vagus nerve; VTD alone, use-dependent) was “highly preferential for C-fibers” and the “Time to recover from VTD-induced use-dependent effects” value (rabbit vagus nerve; after termination of rapid stimulation) was “tens of seconds”. The “Effect of VTD added to a nerve during recovery from bupivacaine” value (rabbit vagus nerve; residual bupivacaine block) was “potentiated rather than antagonized the residual block”, the “Effect on impulses conducted in response to a single stimulus” value (rabbit vagus nerve; single stimuli, 0.5 μM) was “only a small effect; also recorded: unaffected” and the “Response of A-fibers during repetitive stimulation compared with drug-free solutions” value ([2]; 2 μM VTD, 100-Hz stimulation) was “almost identical to that in drug-free solutions before and after VTD exposure”. For the same molecule, the “Single-stimulus APc after VTD compared with no-VTD controls” value ([2]; A-fibers, 0.5 μM, 60 min. in VTD, P>0.05) was “no significant difference”, the “Decline of APc elevation at the second stimulation” value ([2]; A-fibers, 2 μM VTD, 100 Hz, normal refractory behavior) was “about 15%” and the “Reversal of use-dependent depression by washing” value ([2]; A-fibers, VTD-free HL wash) was “did not reverse”. The inhibition at 0.5 µM ([2]; A-fibers, 100 Hz, after 75 min. in VTD, P < 0.001 vs control, read-out: Percent inhibition of the tenth APc in a train compared to the first, VTD) was 25.3 ± 3.5%, the inhibition at 0.5 µM ([2]; A-fibers, 100 Hz, after 75 min. of wash, read-out: Percent inhibition of the tenth APc in a train compared to the first, HL (Wash)) was 27 ± 2.8% and the activity at 0.5 µM ([2]; A-fibers, during VTD exposure) was 117 ± 7%. The activity at 0.5 µM ([2]; A-fibers, wash period) was 123 ± 14%, the “Use-dependent reduction of APc by VTD, A-fibers” value ([2]; up to 2 μM) was “modified little; also recorded: inconsequential for A-fibers” and the “Onset of motor block (summary)” value (rat sciatic nerve [3]; VTD alone, 0.2-0.7 mM) was 6 to 12 min. The “duration, MOTOR” value (rat sciatic nerve [3]; [VTD] 0.2 mM, 0.1 ml) was 124 ± 19 min, the “fraction block, MOTOR” value (rat sciatic nerve [3]; [VTD] 0.5 mM, 0.1 ml) was 10/10 and the “duration, MOTOR” value (rat sciatic nerve [3]; [VTD] 0.5 mM, 0.1 ml) was 211 ± 31 min. For the same molecule, the “onset, MOTOR” value (rat sciatic nerve [3]; [VTD] 0.5 mM, 0.1 ml) was 10 ± 3 min, the “duration, MOTOR” value (rat sciatic nerve [3]; [VTD] 0.7 mM, 0.1 ml) was 285 ± 39 min and the “onset, MOTOR” value (rat sciatic nerve [3]; [VTD] 0.7 mM, 0.1 ml) was 6 ± 2 min. The “Motor function inhibition compared with bupivacaine and lidocaine” value (rat sciatic nerve [3]; rat sciatic nerve) was “more potent and longer acting inhibitor of motor function than either bupivacaine or lidocaine; also recorded: more potent and longer-acting inhibitor of motor function than either bupivacaine or lidocaine”, the “Frequency of sensory block (summary)” value (rat sciatic nerve [4]; VTD alone, vs motor block) was “less frequently” and the “fraction block, SENSORY” value (rat sciatic nerve [4]; [VTD] 0.2 mM) was 1/10. The “duration, SENSORY” value (rat sciatic nerve [4]; [VTD] 0.2 mM) was 51 min, the “onset, SENSORY” value (rat sciatic nerve [4]; [VTD] 0.2 mM) was 13 min and the “fraction block, SENSORY” value (rat sciatic nerve [4]; [VTD] 0.5 mM) was 2/10. The “duration, SENSORY” value (rat sciatic nerve [4]; [VTD] 0.5 mM) was 224 ± 44 min, the “onset, SENSORY” value (rat sciatic nerve [4]; [VTD] 0.5 mM) was 3 ± 1 min and the “fraction block, SENSORY” value (rat sciatic nerve [4]; [VTD] 0.7 mM) was 4/10. The “duration, SENSORY” value (rat sciatic nerve [4]; [VTD] 0.7 mM) was 115 ± 1 min, the “onset, SENSORY” value (rat sciatic nerve [4]; [VTD] 0.7 mM) was 10 ± 2 min and the “Block of nocifensive reflexes compared with bupivacaine and lidocaine” value (rat sciatic nerve [4]; rat sciatic nerve) was “blocked less predictably”.
